Measured values from patent US4205163A, “Tylosin derivatives” (Sanraku-Ocean Co., Ltd., priority 1977, dated 1980).
Values after ≈ are worked out from the molar mass of the structure shown.

Legend:
Assay in all cases: antimicrobial activity, broth dilution method
Assay type in all cases: cell-based
[1] = tested on: Bacillus cereus ATCC 9634; conditions: Bacillus cereus, ATCC9634, Bacillus cereus ATCC 9634; broth dilution; read-out: minimum inhibitory concentration (MIC)
Method: (§1) Antimicrobial activity of the new antibiotics according to the present invention was measured on various pathogenic microorganisms by the broth dilution mehtod. Tab. […] The new antibiotics show a similar antimicrobial spectrum to that of tylosin as shown in Tab. 4. All the compounds have an excellent antimicrobial activity mainly on gram-positive bacteria. […] Test microorganisms with an asterisk mark (*) in Tab. 4 are all drug-resistant strains that were clinically isolated. More in detail, Staphylococcus aureus MS-8710 is resistant to tylosin, penicillin, tetracycline, erythromycin and leucomycin. Staphylococcus aureus MS-9931 is resistant to tylosin, penicillin, erythromycin, tetracycline, leucomycin, spiramycin and josamycin. And also Streptococcus piogenes is resistant to tylosin, erythromycin, oleandomycin and leucomycin.

[2] = tested on: Sarcina lutea ATCC 9341; conditions: Micrococcus luteus, ATCC9341, Sarcina lutea ATCC 9341, read-out: minimum inhibitory concentration (MIC)
Method: as §1

[3] = tested on: Staphylococcus aureus FDA-209P; conditions: Staphylococcus aureus, FDA209P, Staphylococcus aureus FDA-209P; broth dilution; read-out: minimum inhibitory concentration (MIC)
Method: as §1

[4] = tested on: Staphylococcus aureus MS-8710; conditions: Staphylococcus aureus, MS8710, Staphylococcus aureus MS-8710, drug-resistant clinical isolate; read-out: minimum inhibitory concentration (MIC)
Method: as §1

[5] = tested on: Staphylococcus aureus MS-9931; conditions: MS9931; Staphylococcus aureus MS-9931, drug-resistant clinical isolate; read-out: minimum inhibitory concentration (MIC)
Method: as §1

[6] = tested on: Staphylococcus aureus MS-9937; conditions: MS9937; Staphylococcus aureus MS-9937, drug-resistant clinical isolate; read-out: minimum inhibitory concentration (MIC)
Method: as §1

[7] = tested on: Staphylococcus aureus SMITH; conditions: Staphylococcus aureus, Staphylococcus aureus SMITH; broth dilution; read-out: minimum inhibitory concentration (MIC)
Method: as §1

[8] = tested on: Streptococcus pyogenes MH-771; conditions: Streptococcus pyogenes, MH771, Streptococcus pyogenes MH-771, drug-resistant clinical isolate; read-out: minimum inhibitory concentration (MIC)
Method: as §1

SMILES | MIC [1] | MIC [2] | MIC [3] | MIC [4] | MIC [5] | MIC [6] | MIC [7] | MIC [8]
CCC1OC(=O)CC(O)C(C)C(OC2OC(C)C(OC3CC(C)(O)C(O)C(C)O3)C(N(C)C)C2OC(C)=O)C(CC=O)CC(C)C(=O)C=CC(C)=CC1COC1OC(C)C(OC(=O)CCl)C(OC)C1OC (stereo not drawn) [Compound 1, 2'-acetyl-4'"-monochloracetyltylosin] | 1.56 µg/mL (≈ 1.51 µM) | 0.78 µg/mL (≈ 0.754 µM) | 1.56 µg/mL (≈ 1.51 µM) | > 200 µg/mL | 200 µg/mL (≈ 193 µM) | 200 µg/mL (≈ 193 µM) | 1.56 µg/mL (≈ 1.51 µM) | 200 µg/mL (≈ 193 µM)
CCC1OC(=O)CC(O)C(C)C(OC2OC(C)C(OC3CC(C)(O)C(O)C(C)O3)C(N(C)C)C2OC(C)=O)C(CC=O)CC(C)C(=O)C=CC(C)=CC1COC1OC(C)C(OC(=O)C(Cl)(Cl)Cl)C(OC)C1OC (stereo not drawn) [Compound 2, 2'-acetyl-4'"-trichloroacetyltylosin] | 1.56 µg/mL (≈ 1.41 µM) | 0.39 µg/mL (≈ 0.353 µM) | 1.56 µg/mL (≈ 1.41 µM) | 200 µg/mL (≈ 181 µM) | 100 µg/mL (≈ 90.6 µM) | 100 µg/mL (≈ 90.6 µM) | 1.56 µg/mL (≈ 1.41 µM) | 200 µg/mL (≈ 181 µM)
CCC1OC(=O)CC(OC(C)=O)C(C)C(OC2OC(C)C(OC3CC(C)(O)C(O)C(C)O3)C(N(C)C)C2OC(C)=O)C(CC=O)CC(C)C(=O)C=CC(C)=CC1COC1OC(C)C(OC(=O)CCl)C(OC)C1OC (stereo not drawn) [Compound 3, 3,2'-diacetyl-4'"-monochloroacetyltylosin] | 1.56 µg/mL (≈ 1.45 µM) | 0.78 µg/mL (≈ 0.724 µM) | 1.56 µg/mL (≈ 1.45 µM) | 100 µg/mL (≈ 92.9 µM) | 100 µg/mL (≈ 92.9 µM) | 100 µg/mL (≈ 92.9 µM) | 1.56 µg/mL (≈ 1.45 µM) | 100 µg/mL (≈ 92.9 µM)
CCC1OC(=O)CC(OC(C)=O)C(C)C(OC2OC(C)C(OC3CC(C)(O)C(O)C(C)O3)C(N(C)C)C2OC(C)=O)C(CC=O)CC(C)C(=O)C=CC(C)=CC1COC1OC(C)C(OC(=O)C(Cl)(Cl)Cl)C(OC)C1OC (stereo not drawn) [Compound 4, 3,2'-diacetyl-4'"-trichloroacetyltylosin] | 1.56 µg/mL (≈ 1.36 µM) | 0.39 µg/mL (≈ 0.34 µM) | 1.56 µg/mL (≈ 1.36 µM) | 100 µg/mL (≈ 87.3 µM) | 100 µg/mL (≈ 87.3 µM) | 100 µg/mL (≈ 87.3 µM) | 1.56 µg/mL (≈ 1.36 µM) | 100 µg/mL (≈ 87.3 µM)
CCC1OC(=O)CC(O)C(C)C(OC2OC(C)C(OC3CC(C)(O)C(O)C(C)O3)C(N(C)C)C2OC(C)=O)C(CC=O)CC(C)C(=O)C=CC(C)=CC1COC1OC(C)C(OC(=O)COc2ccccc2)C(OC)C1OC (stereo not drawn) [Compound 5, 2'-acetyl-4'"-phenoxyacetyltylosin] | 0.78 µg/mL (≈ 0.714 µM) | 0.39 µg/mL (≈ 0.357 µM) | 0.78 µg/mL (≈ 0.714 µM) | 100 µg/mL (≈ 91.6 µM) | 100 µg/mL (≈ 91.6 µM) | 100 µg/mL (≈ 91.6 µM) | 0.78 µg/mL (≈ 0.714 µM) | 100 µg/mL (≈ 91.6 µM)
CCOC(=O)OC1C(C)OC(OCC2C=C(C)C=CC(=O)C(C)CC(CC=O)C(OC3OC(C)C(OC4CC(C)(O)C(O)C(C)O4)C(N(C)C)C3OC(C)=O)C(C)C(OC(C)=O)CC(=O)OC2CC)C(OC)C1OC (stereo not drawn) [Compound 6, 3,2'-diacetyl-4'"-carboethoxytylosin] | 0.78 µg/mL (≈ 0.727 µM) | 0.39 µg/mL (≈ 0.364 µM) | 0.78 µg/mL (≈ 0.727 µM) | 100 µg/mL (≈ 93.3 µM) | 100 µg/mL (≈ 93.3 µM) | 100 µg/mL (≈ 93.3 µM) | 0.78 µg/mL (≈ 0.727 µM) | 100 µg/mL (≈ 93.3 µM)
CCCCCC(=O)OC1C(C)OC(OC2C(C)OC(OC3C(CC=O)CC(C)C(=O)C=CC(C)=CC(COC4OC(C)C(O)C(OC)C4OC)C(CC)OC(=O)CC(O)C3C)C(O)C2N(C)C)CC1(C)O (stereo not drawn) [Compound 7, 4"-n-caproyl(or n-hexanoyl)tylosin] | 0.78 µg/mL (≈ 0.769 µM) | 0.39 µg/mL (≈ 0.385 µM) | 0.78 µg/mL (≈ 0.769 µM) | 12.5 µg/mL (≈ 12.3 µM) | 25 µg/mL (≈ 24.6 µM) | 12.5 µg/mL (≈ 12.3 µM) | 0.78 µg/mL (≈ 0.769 µM) | 6.25 µg/mL (≈ 6.16 µM)
CCCCCC(=O)OC1C(C)OC(OC2C(C)OC(OC3C(CC=O)CC(C)C(=O)C=CC(C)=CC(COC4OC(C)C(O)C(OC)C4OC)C(CC)OC(=O)CC(OC(C)=O)C3C)C(O)C2N(C)C)CC1(C)O (stereo not drawn) [Compound 8, 3-acetyl-4"-n-caproyl(or n-hexanoyl)tylosin] | 0.78 µg/mL (≈ 0.738 µM) | 0.39 µg/mL (≈ 0.369 µM) | 0.39 µg/mL (≈ 0.369 µM) | 25 µg/mL (≈ 23.7 µM) | 25 µg/mL (≈ 23.7 µM) | 25 µg/mL (≈ 23.7 µM) | 0.78 µg/mL (≈ 0.738 µM) | 6.25 µg/mL (≈ 5.92 µM)
CCCCCCCC(=O)OC1C(C)OC(OC2C(C)OC(OC3C(CC=O)CC(C)C(=O)C=CC(C)=CC(COC4OC(C)C(O)C(OC)C4OC)C(CC)OC(=O)CC(O)C3C)C(O)C2N(C)C)CC1(C)O (stereo not drawn) [Compound 9, 4"-n-caprylyl(or n-octanoyl)tylosin] | 1.56 µg/mL (≈ 1.5 µM) | 0.39 µg/mL (≈ 0.374 µM) | 0.78 µg/mL (≈ 0.748 µM) | 25 µg/mL (≈ 24 µM) | 25 µg/mL (≈ 24 µM) | 25 µg/mL (≈ 24 µM) | 0.78 µg/mL (≈ 0.748 µM) | 25 µg/mL (≈ 24 µM)
CCCCCCCCCC(=O)OC1C(C)OC(OC2C(C)OC(OC3C(CC=O)CC(C)C(=O)C=CC(C)=CC(COC4OC(C)C(O)C(OC)C4OC)C(CC)OC(=O)CC(O)C3C)C(O)C2N(C)C)CC1(C)O (stereo not drawn) [Compound 10, 4"-n-capryl(or n-decanoyl)tylosin] | 1.56 µg/mL (≈ 1.46 µM) | 0.78 µg/mL (≈ 0.729 µM) | 1.56 µg/mL (≈ 1.46 µM) | 100 µg/mL (≈ 93.4 µM) | 50 µg/mL (≈ 46.7 µM) | 100 µg/mL (≈ 93.4 µM) | 1.56 µg/mL (≈ 1.46 µM) | 50 µg/mL (≈ 46.7 µM)
CCC1OC(=O)CC(O)C(C)C(OC2OC(C)C(OC3CC(C)(O)C(OC(=O)CCC(C)C)C(C)O3)C(N(C)C)C2O)C(CC=O)CC(C)C(=O)C=CC(C)=CC1COC1OC(C)C(O)C(OC)C1OC (stereo not drawn) [Compound 11, 4"-iso-caproyl(or iso-hexanoyl)tylosin] | 0.78 µg/mL (≈ 0.769 µM) | 0.39 µg/mL (≈ 0.385 µM) | 0.78 µg/mL (≈ 0.769 µM) | 12.5 µg/mL (≈ 12.3 µM) | 12.5 µg/mL (≈ 12.3 µM) | 12.5 µg/mL (≈ 12.3 µM) | 0.78 µg/mL (≈ 0.769 µM) | 6.25 µg/mL (≈ 6.16 µM)
CCCC(C)C(=O)OC1C(C)OC(OC2C(C)OC(OC3C(CC=O)CC(C)C(=O)C=CC(C)=CC(COC4OC(C)C(O)C(OC)C4OC)C(CC)OC(=O)CC(O)C3C)C(O)C2N(C)C)CC1(C)O (stereo not drawn) [Compound 12, 4"-α-methyl-n-valeryltylosin] | 0.78 µg/mL (≈ 0.769 µM) | 0.39 µg/mL (≈ 0.385 µM) | 1.56 µg/mL (≈ 1.54 µM) | 25 µg/mL (≈ 24.6 µM) | 100 µg/mL (≈ 98.6 µM) | 25 µg/mL (≈ 24.6 µM) | 1.56 µg/mL (≈ 1.54 µM) | 6.25 µg/mL (≈ 6.16 µM)
CCC(CC)C(=O)OC1C(C)OC(OC2C(C)OC(OC3C(CC=O)CC(C)C(=O)C=CC(C)=CC(COC4OC(C)C(O)C(OC)C4OC)C(CC)OC(=O)CC(OC(C)=O)C3C)C(O)C2N(C)C)CC1(C)O (stereo not drawn) [Compound 13, 3-acetyl-4"-α-ethyl-n-butyryltylosin] | 0.78 µg/mL (≈ 0.738 µM) | 0.19 µg/mL (≈ 0.18 µM) | 0.39 µg/mL (≈ 0.369 µM) | 25 µg/mL (≈ 23.7 µM) | 25 µg/mL (≈ 23.7 µM) | 25 µg/mL (≈ 23.7 µM) | 0.78 µg/mL (≈ 0.738 µM) | 12.5 µg/mL (≈ 11.8 µM)
CCC1OC(=O)CC(O)C(C)C(OC2OC(C)C(OC3CC(C)(O)C(OC(=O)Cc4ccc([N+](=O)[O-])cc4)C(C)O3)C(N(C)C)C2O)C(CC=O)CC(C)C(=O)C=CC(C)=CC1COC1OC(C)C(O)C(OC)C1OC (stereo not drawn) [Compound 14, 4"-(4-nitrophenyl)acetyltylosin] | 0.39 µg/mL (≈ 0.361 µM) | 0.19 µg/mL (≈ 0.176 µM) | 0.39 µg/mL (≈ 0.361 µM) | 6.25 µg/mL (≈ 5.79 µM) | 6.25 µg/mL (≈ 5.79 µM) | 6.25 µg/mL (≈ 5.79 µM) | 0.39 µg/mL (≈ 0.361 µM) | 3.13 µg/mL (≈ 2.9 µM)
CCC1OC(=O)CC(OC(C)=O)C(C)C(OC2OC(C)C(OC3CC(C)(O)C(OC(=O)C(C)c4ccccc4)C(C)O3)C(N(C)C)C2O)C(CC=O)CC(C)C(=O)C=CC(C)=CC1COC1OC(C)C(O)C(OC)C1OC (stereo not drawn) [Compound 15, 3-acetyl-4"-α-phenylpropionyltylosin] | 0.78 µg/mL (≈ 0.715 µM) | 0.19 µg/mL (≈ 0.174 µM) | 0.39 µg/mL (≈ 0.358 µM) | 25 µg/mL (≈ 22.9 µM) | 25 µg/mL (≈ 22.9 µM) | 25 µg/mL (≈ 22.9 µM) | 0.39 µg/mL (≈ 0.358 µM) | 12.5 µg/mL (≈ 11.5 µM)
